For `Cc1nnc2n1-c1sc(C#CCCN3C(=O)c4cccc5cccc(c45)C3=O)cc1C(c1ccccc1Cl)=NC2`, the melting point (usually the temperature of the solid-liquid transition) lay within 175 to 179 °C. To `O=C(O)Cc1c(C(=O)O)c2cc(Oc3ccc(C(F)(F)F)cn3)ccc2n1-c1ccc(OC(F)(F)F)cc1` belongs 203 °C; to `NC(=O)c1sc2nccc(N3CCCC(c4ccccc4)C3)c2c1N` (stereo not drawn), 267 to 269 °C; to `O=C(Nc1c(F)cccc1Cl)c1ccc(-n2nc(C(F)(F)F)cc2C2CC2)c(F)c1`, 148 to 152 °C. The same measure for `Clc1cc2c(s1)-n1c(nnc1CN1CCOCC1)CN=C2c1ccccc1Cl`: 224 to 226 °C; for `Cn1nnnc1SCC1c2cc(OC(=O)c3cccs3)c(OC(=O)c3cccs3)cc2CCN1C(=O)OCC(Cl)(Cl)Cl` (stereo not drawn): 139 to 146 °C. The same measure for `CC(C)(C)OC(=O)NCCC(=O)NCCC(=O)OCc1ccccc1`: 84 to 85 °C; for `O=C(Cn1c(-c2ccc(C(F)(F)F)cc2)nc2cccnc21)NCc1ccccc1`: 224 to 225 °C; for `CCC(=O)Cc1ccc(OCc2nnn[nH]2)cc1`: 148 to 150 °C.

In turn, `CC(C)Nc1nc(-n2cc(C(=O)O)c(=O)c3cc(F)c(F)c(Cl)c32)c(F)cc1F` yielded a melting point of 226 to 230 °C. To `COc1ccc(C(=O)Nc2ccc(F)c(F)c2)cc1NC(=S)Nc1cc(Cl)cc(Cl)c1` belongs 180 to 183 °C. To `COc1ccc(C#Cc2ccccc2)c(CC(C)=O)c1` belongs 60 to 62 °C; to `COc1ccc(-c2cnc3c(-c4ccsc4)cnn3c2)cc1`, 191 to 193 °C; to `C=CCCOc1ccc(C[C@H](NC(=O)OC(C)(C)C)C(=O)O)cc1`, 148 to 150 °C. For `COc1ccc(-c2cc(C)sc2-c2ccc(OC)cc2)cc1`, the melting point lay in the range of 93 to 97 °C. As to `CN1CCC(O)(CNC=O)CC1`, the melting point fell in the range of 116 to 122 °C.

With `CC(C)NC(=O)c1ccc([N+](=O)[O-])cc1`, the melting point was in the range of 152 to 154 °C. The same measure for `CN1C(=O)CC[C@]2(C)c3ccc(-c4ccc(Cl)c(C(F)(F)F)c4)cc3CC[C@@H]12`: 134 to 137 °C.

`CC(C)(C)OC(=O)NC(Cc1ccccc1)C(O)CNCC(O)C(Cc1ccccc1)NC(=O)OC(C)(C)CCCNCc1ccccc1` (stereo not drawn): the melting point is 128 to 132 °C. To `CC1(C)C(=O)Oc2ccc3cc([N+](=O)[O-])c(Cn4cncn4)cc3c21` belongs 183 to 185 °C. To `Nc1nc(Nc2ccccc2)nc(-c2cc(Cl)ccc2Cl)n1` belongs 180 to 181 °C; to `N#Cc1cc(F)c(N2CCN(Cc3cnc4c(c3)NC(=O)[C@@H]3CCCN43)CC2)cc1F`, 224 to 227 °C; to `CCOC(=O)C=CC(C)=CC=O`, 48 to 49 °C.

Take `N#Cc1cc2cc(O)c(O)cc2s1`: the melting point fell in the range of 229 to 230 °C. The same measure for `CN1C(=O)CC(c2ccccc2)C1C(O)C=Cc1ccc(F)cc1` (stereo not drawn): 189 to 191 °C; for `CC1CCCC(C)N1Cc1ccc(NC(=O)C#Cc2ccc(-c3ccc(Cl)cc3)cc2)cc1` (stereo not drawn): 158 to 163 °C.

With `NN=Cc1ccc(C(=O)NC2CCC3(CC2)CN(CC(=O)O)C(=O)O3)cc1` (stereo not drawn), the melting point fell in the range of 280 to 284 °C. `O=C1N(c2ccc(Cl)cc2Cl)Cc2cnc(Nc3ccccc3)nc2N1c1cccc(CCO)c1` returned a melting point of 213 to 217 °C. Consider `CN(Cc1sc2c(=O)c(C(=O)NCc3ccc(Cl)cc3)cn(C)c2c1COCC[Si](C)(C)C)CC(O)c1cc2ccccc2o1` (stereo not drawn), for which the melting point was 157 to 159 °C. The same measure for `COC(=O)C(CSc1ccccc1)N1CC(NC(=O)C(=NO)c2ccccc2)C1=O` (stereo not drawn): 163 to 169 °C; for `CCOC(=O)N(c1ccccc1)c1cc(Cl)ccc1N=NC(NC(=O)CCl)(C(=O)OCC)C(=O)OCC`: 105 to 110 °C. The same measure for `CS(=O)(=O)c1ccc(-c2cc(F)c(F)cc2-c2ccc3c(c2)OCO3)cc1`: 110 to 111 °C; for `Oc1ccc(OCC(O)CNCCNc2cccc3[nH]ncc23)cc1` (stereo not drawn): 151 to 153 °C; for `Nc1ccc(S(=O)(=O)c2cc(-c3ccccc3Cl)nc(N3CCCC3)c2)cc1`: 188 to 190 °C. To `O=C1C2CCCN2S(=O)(=O)N1CSc1nnnn1-c1ccccc1` (stereo not drawn) belongs 99.5 to 100 °C; to `Cc1nc(Cn2c(=O)sc3cc(F)c(N4C(=O)C5=C(CCCC5)C4=O)cc32)no1`, 198 to 199 °C; to `COCCN(CCOC)C(=O)c1cccc(NC(=O)Oc2ccccc2)c1`, 116 to 118 °C.

Consider `COc1cc(OC)nc(CCl)n1`, for which the melting point fell in the range of 40 to 42 °C.

The compound `CCCC#Cc1cnc(-c2ccc(F)cc2)nc1` displayed a melting point of 51 °C. To `Cc1c(CC=CCCC(=O)O)cccc1C(=O)c1ccc(Cl)cc1` belongs 73 °C; to `CCCCCCSCCSc1nc2nc(C)cc(O)n2n1`, 126 °C; to `O=S1(=O)N=C(O)c2ccc(-c3ccccn3)cc21`, 305 to 311 °C. In the case of `Clc1ccn(-c2cccnc2)n1`, the melting point was in the range of 98 to 106 °C.

`CCCc1c(OCCCCCc2c(Cl)c(Cl)c(Cl)c(OC)c2OC)ccc(C(=O)OC)c1O` showed a melting point of 84 to 87 °C. To `CN(C)C(=O)n1oc(CCl)cc1=O` belongs 89 to 90 °C; to `O=C(Cn1ncc(-c2ccccc2)c1-c1ccccc1)NCCCN1CCCC1`, 75 to 79 °C; to `Cc1nnc2cc(-c3ccccn3)ccn12`, 239 to 241 °C. The same measure for `S=c1nc(-c2ccc(Br)cc2)[nH]n1Cc1ccccc1`: 250 to 251 °C. For the compound `Cc1ccccc1CC(=NC#N)NC(NC(=O)Cc1ccc2ncccc2c1)C(C)(C)C` (stereo not drawn), the melting point fell in the range of 172 to 173 °C. The same measure for `O=C1CCN(C2c3ccccc3C=Cc3ccccc32)CC1C(c1ccccc1)c1ccccc1` (stereo not drawn): 175 to 178 °C. To `CC(=O)Oc1c(C)sc2ccccc12` belongs 75 to 77 °C; to `CCC12CCC3C4CCC(=O)C=C4CC(C)C3C1CCC2O` (stereo not drawn), 152 to 154 °C; to `COC(=O)COc1cccc2c(CCBr)c(C)oc12`, 146 to 148 °C.

In the case of `CCOC(=O)c1c(O)c2cc(F)ccc2c(=O)n1CC(C)C`, the melting point was 91 to 92 °C. The same measure for `CS(=O)(=O)OCCOc1ccc(CN2C(=O)C(=O)c3cc(S(=O)(=O)N4CCCC4COc4ccccc4)ccc32)cc1` (stereo not drawn): 152 to 153 °C. To `CCOC(=O)CCC(C=Cc1ccc(OC)c(OC)c1)=C1SC(=S)NC1=O` belongs 178 to 180 °C; to `CCN1C(=O)C(C)(C)C(=O)N(C)c2cc(CN(CCn3ccc4oc(C)cc4c3=O)Cc3ccc(C=O)cc3)ccc21`, 153 to 155 °C.

On to `CCn1nc(C(F)(F)F)cc1NC(=O)c1c(C)cccc1C(=O)NC(C)C`, for which the melting point lay in the range of 223 to 226 °C. The same measure for `COc1ccc2c(c1)C(=O)c1c-2cnc2ccccc12`: 195 to 196 °C; for `COc1ccc(C(C)c2cc(O)ccc2OC)cc1` (stereo not drawn): 81 to 83 °C.

`N#Cc1nn(-c2c(Cl)cc(C(F)(F)F)cc2Cl)c(N)c1S(=O)(=O)CC(F)(F)F`: the melting point turned out to be 157 °C.

As for `CC(C)(C)[C@H]1N(c2ccc(C#N)c3ccccc23)C(=O)[C@@H]2C[C@@H](O)CN21`, the melting point was in the range of 155 to 157 °C. Consider `CCCCCCCCCC=[N+]([O-])CCCCCCCCCC`, for which the melting point lay within 63 to 65 °C.

Consider `COc1cc(C)cc(OC)c1N(CC1CCCCC1)C(=O)CNC(=O)c1cc2ccccc2n1CCC(=O)NC1C2CC3CC(C2)CC1C3` (stereo not drawn), for which the melting point was determined as 96 °C. The same measure for `CCCNC(=O)c1nc2n(n1)-c1ccc(Cl)cc1C(c1ccccc1Cl)=NC2`: 110 to 113 °C.

In the case of `O=C(O)C1CCCC(C(=O)O)C1` (stereo not drawn), the melting point was 163 to 165 °C. To `CCN(CC)OC(C(=O)O)(C(=O)O)c1ccccc1` belongs greater than 250 °C. As to `Cc1cc(-c2nc3cc(F)cc(F)c3s2)ccc1N`, the melting point fell in the range of 201 to 203 °C. The same measure for `COC(=O)C1=Cc2cc(-c3ccc4c(c3)OCO4)ccc2SCC1`: 126 to 129 °C. In turn, `Cc1ccc(-c2ccc3c(c2)C=C(C(=O)Nc2ccc(CNCc4ccccc4)cc2)CCO3)cc1` registered a melting point of 147 to 148 °C. To `COC(=O)c1cc2cc(SCc3sc(-c4ccc(C(F)(F)F)cc4)nc3C)ccc2o1` belongs 132 to 133 °C; to `O=C1c2ccccc2C(=O)N1OCc1cn(C(c2ccccc2)(c2ccccc2)c2ccccc2)cn1`, 155 to 157 °C. The same measure for `N#CC1c2ccccc2Oc2ccccc21`: 97 to 98 °C. To `C#Cc1cc(F)c(-n2c(=O)cc(C(F)(F)F)n(C)c2=O)c2c1OC(C)C2` (stereo not drawn) belongs 69 to 72.5 °C; to `CC[C@H](C)CNC(=O)C[C@H](O)[C@H](CC(C)C)C(=O)OC(C)(C)C`, 83 to 84 °C. As for `CCCCCCCCCCCCCCCCC(CO)C(=O)O` (stereo not drawn), the melting point is 62 to 67 °C. The same measure for `Nc1ncc(I)c(N)n1`: 212 to 214 °C. To `O=C(O)C1Oc2cc(Cl)c(S(=O)(=O)c3cccc(Cl)c3)cc2O1` (stereo not drawn) belongs 151 to 153 °C. The compound `O=C(NCCO)c1cccc(-c2ccc3c(c2)N(c2cc(Cl)cc(Cl)c2)CC3)c1` came in with a melting point of 108 to 109 °C. To `Cn1ccc(=O)c(CO)c1` belongs 185 to 186 °C; to `COC(=O)c1cncn1C1c2ccccc2C(=O)C1(C)C` (stereo not drawn), 104 to 108 °C; to `Cc1ccc(CC2CCN(C(=O)C(=O)Nc3ccc(NS(C)(=O)=O)cc3)CC2)cc1`, 179 to 181 °C. To `NC(=O)C(=O)CCCCl` belongs 87 °C; to `COC(=O)c1ccc(N2CCC(N(C)Cc3ccc(F)cc3)CC2)cc1`, 92 °C. Turning to `CCOC(=O)c1c(N(C)CCO)c2ccc(C)nc2n(CC)c1=O`, the melting point was 111 to 113 °C. To `C[C@]12CCC3=C4CCC(=O)C=C4CC[C@H]3[C@@H]1CCC21OCCC1O` (stereo partly drawn) belongs 180 °C. The same measure for `CNC(=O)c1cc2c(nc(C)n2C)c2c1C[C@@H](O)[C@@H](c1ccccc1)N2`: 265 to 268 °C; for `CCOc1ccc2[nH]c(C)cc2c1`: 76 to 77 °C.

(Values after a melting point compilation (Tetko et al.; mined from patent text by program, amines drawn as free bases though some values may be those of a salt).)
